# From ChEMBL document CHEMBL1201862, “PubChem BioAssay data set” (2004)
# Active and inactive are the calls of the source.
# Assays:
# HeLa = test: HeLa cell cytotoxicity, dose response, cytotoxicity control, ATP luminescence, cherry-pick samples (AID 687004); assay type: functional, cell-based; details: Homo sapiens
# [1] = cytotoxicity in OVCAR4 cells, dose response, cytotoxicity control for PAX8 inhibitor project, cell-based, plate reader, dry powder, SA11 (AID 743150); assay type: functional; details: OVCAR-4
# [2] = cytotoxicity dependent on PAX8, dose response, cell-based, plate reader, dry powder (AID 743049); assay type: functional
# [3] = IGROV1 ovarian cancer cell cytotoxicity, dose response, PAX8 inhibitor project, plate reader, dry powder samples (AID 743043); assay type: functional, cell-based; details: IGROV-1
# [4] = cytotoxicity in COV434 cells, dose response, cytotoxicity control for PAX8 inhibitor project, cell-based, plate reader, dry powder, SA7 (AID 743145); assay type: functional
# [5] = cytotoxicity in COV362 ovarian cancer cells, dose response, cytotoxicity control for PAX8 inhibitor project, cell-based, plate reader, dry powder, SA12 (AID 743144); assay type: functional
# [6] = IOSE-T80 ovarian epithelial cell cytotoxicity, dose response, cytotoxicity control for PAX8 inhibitor project, plate reader, dry powder samples (AID 743045); assay type: functional, cell-based
# [7] = cytotoxicity in OV-90 ovarian cancer cells, dose response, PAX8 inhibitor project, cell-based, plate reader, dry powder, SA8 (AID 743149); assay type: functional
# [8] = NIH:OVCAR-3 ovarian cancer cell cytotoxicity, dose response, PAX8 inhibitor project, plate reader, dry powder samples (AID 743044); assay type: functional, cell-based
# [9] = A549 cell cytotoxicity, dose response, cytotoxicity control, plate reader, cherry-pick, antagonist series (AID 743412); assay type: functional, cell-based
# [10] = LGR2 antagonists, dose response, cell-based, HEK293, CRE-luciferase reporter, cherry pick (AID 743342); assay type: functional
# [11] = HEK293 cell cytotoxicity, dose response, cytotoxicity control, plate reader, cherry-picked samples (AID 743446); assay type: functional, cell-based
# [12] = MC4R antagonists, dose response, counter-screen for LGR2 antagonist project, cell-based, plate reader, cherry pick (AID 743444); assay type: functional;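 further: transfected HEK 293 cells stimulated with alpha-MSH peptide; potency of inhibitors of the alpha-MSH evoked signal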
# [13] = IRAP inhibitors, dose response, selectivity assay for ERAP1 modulator project, biochemical, Leu-AMC fluorescence, cherry-picked samples, set 2 (AID 743340)
# [14] = target: T1, High affinity choline transporter 1 (Homo sapiens, UniProt Q9GZV3); test: CHT choline uptake inhibitors, dose response, cell-based, HEK-293 hCHT, [3H]-choline uptake (AID 652177); assay type: functional
# T1 sequence (Q9GZV3 whole entry): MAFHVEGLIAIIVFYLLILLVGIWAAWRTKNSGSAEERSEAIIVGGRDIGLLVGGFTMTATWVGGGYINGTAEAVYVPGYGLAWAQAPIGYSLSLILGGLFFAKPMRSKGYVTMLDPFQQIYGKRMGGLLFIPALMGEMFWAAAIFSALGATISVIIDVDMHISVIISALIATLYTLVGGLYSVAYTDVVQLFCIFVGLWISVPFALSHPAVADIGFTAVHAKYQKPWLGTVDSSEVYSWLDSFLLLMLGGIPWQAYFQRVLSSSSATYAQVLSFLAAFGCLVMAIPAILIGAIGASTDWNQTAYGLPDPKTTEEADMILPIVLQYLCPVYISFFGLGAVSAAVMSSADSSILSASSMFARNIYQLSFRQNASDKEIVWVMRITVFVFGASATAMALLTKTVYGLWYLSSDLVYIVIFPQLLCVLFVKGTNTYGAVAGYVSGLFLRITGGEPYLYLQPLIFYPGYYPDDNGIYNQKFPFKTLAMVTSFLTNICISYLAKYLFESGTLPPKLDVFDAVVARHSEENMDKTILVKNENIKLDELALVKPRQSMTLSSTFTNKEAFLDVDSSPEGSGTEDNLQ
# [15] = cytotoxicity in HeLa cells, dose response, cytotoxicity control, cell-based, 24 h, dry powder, set 2 (AID 651774); assay type: functional
# [16] = target: T2, Oxysterols receptor LXR-beta (Homo sapiens, UniProt P55055); assay type: functional, cell-based;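 further: agonist activity at LXR measured by a cell-based luminescence readout across a dose range, run as a counterscreen for daf-12 agonists; HEK293 cells with Gal4-LXR fusion and GAL4-driven luciferase reporter; potency for activation of Gal4-LXR reporter so compounds are agonists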
# T2 sequence (P55055 whole entry): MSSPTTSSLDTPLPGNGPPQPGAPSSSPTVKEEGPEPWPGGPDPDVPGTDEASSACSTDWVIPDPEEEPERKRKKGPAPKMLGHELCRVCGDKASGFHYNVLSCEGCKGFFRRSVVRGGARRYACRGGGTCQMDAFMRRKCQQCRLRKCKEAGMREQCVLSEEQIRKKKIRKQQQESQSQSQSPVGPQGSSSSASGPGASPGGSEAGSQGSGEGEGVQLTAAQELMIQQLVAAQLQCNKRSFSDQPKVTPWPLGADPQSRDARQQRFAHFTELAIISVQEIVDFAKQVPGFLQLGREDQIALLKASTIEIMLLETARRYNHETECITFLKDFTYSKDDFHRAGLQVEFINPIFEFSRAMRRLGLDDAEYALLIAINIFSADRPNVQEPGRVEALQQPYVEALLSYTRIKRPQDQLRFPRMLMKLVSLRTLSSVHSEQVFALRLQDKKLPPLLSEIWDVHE
# H4 = test: Luminescence Cell-Based Dose Response HTS to Identify Activators of 5'UTR Stem-Loop Driven Prion Protein mRNA Translation in H4 Neuroglioblastoma Cells. [Related pubchem assays: 1829 (Project Summary), 1814 (Primary HTS)]; assay type: functional; details: Homo sapiens
structure (smiles),measurement,setting,value
C[C@H](CO)N1C[C@H](C)[C@H](CN(C)Cc2ccccc2)Oc2cc(C#Cc3ccccn3)ccc2S1(=O)=O,AC50,HeLa,> 52 µM (inactive)
O=C(CCCN1C(=O)/C(=C\c2cccc(Br)c2)SC1=S)Nc1ccccn1,AC50,[1],42.7 µM (active)
same,AC50,[2],17.6 µM (active)
same,AC50,[3],14.8 µM (active)
same,AC50,[4],49.7 µM (active)
same,AC50,[5],46.2 µM (active)
same,AC50,[6],68.5 µM (active)
same,AC50,[7],36.8 µM (active)
same,AC50,[8],18.9 µM (active)
COc1ccc(S(=O)(=O)N(C)C[C@@H]2OCCCC[C@H](C)Oc3ccc(NS(=O)(=O)c4ccc(Cl)cc4)cc3C(=O)N([C@@H](C)CO)C[C@@H]2C)cc1,AC50,[9],5.98 µM (active)
same,AC50,[10],3.79 µM (active)
same,AC50,[11],28.5 µM (active)
same,AC50,[12],4.58 µM (active)
COc1ccc(CN(C)C[C@@H]2OCCCC[C@@H](C)Oc3ccc(NS(=O)(=O)c4c(C)noc4C)cc3C(=O)N([C@@H](C)CO)C[C@@H]2C)cc1,AC50,[13],16.2 µM (active)
COc1ccc(C(=O)NCc2csc(C)n2)cc1OC1CCN(C(C)C)CC1,IC50,[14],6.18 µM (active)
c1ccc(-c2ccc(CCNC3CCCC3)cc2)cc1,AC50,[15],> 70 µM (inactive)
COC(=O)C1C(=O)c2c([nH]c(C(=O)OC3CCCCC3)c2C)CC1C (stereo not drawn),EC50,[16],> 67.5 µM (inactive)
same,EC50,H4,8.72 µM (active)
